Laboratory results reported in patent US12257224B2, “Methods of administration for highly water-soluble salts of a short acting phenylalkylamine calcium channel blocker” (Milestone Pharmaceuticals Inc., priority 2021, dated 2025).

Columns and labels:
[1] = Formation of concentrated aqueous acid addition salt solutions of compound I; assay type: physicochemical; settings: free base treated with methanesulfonic acid or acetic acid
[2] = Method: Randomized, double-blind, placebo-controlled, ethnobridging PK/PD study, 35, 70 and 105 mg doses were evaluated.
induced PSVT = test: Phase 2 study: termination of induced PSVT; assay type: in vivo, human; settings: for mean reduction in systolic blood pressure (SBP) versus baseline: between 4 and 10 minutes after administration
Method: In a Phase 2 study, four doses (35, 70, 105, and 140 mg) were tested.

PSVT = test: Example 2: Phase 3 study of self-administered 70 mg dose for PSVT in an at-home setting; assay type: in vivo, human
Method: A multi-center, randomized, double-blind, placebo-controlled study to evaluate the efficacy and safety of a 70 mg self-administered dose of compound I in an at-home setting was conducted. […] PSVT episodes were documented by an ambulatory Cardiac Monitoring System (CMS) placed on the chest by the patient or caregiver when symptoms began and were recorded at least 5 hours of continuous electrocardiogram (ECG).
The primary efficacy endpoint was defined as an adjudicated termination of a positively adjudicated episode of PSVT and conversion to sinus rhythm for at least 30 seconds. The primary efficacy endpoint was evaluated using the time to conversion of an episode of PSVT to sinus rhythm after study drug administration as the primary efficacy variable. The study included a screening visit, a test dose randomization visit, follow-up visits, a treatment period, and a final study visit. Before randomization, all patients received a 70 mg test dose of compound I to evaluate tolerability. The test dose administration took place at the study site under medical supervision while the patient was in sinus rhythm (SR). Patients who passed the test dose were randomized in a 2:1 ratio to 70 mg compound I or placebo. During the treatment period, all randomized patients performed a sequence of steps upon self-identifying symptoms of an episode of PSVT, including contacting a telephone coach for assistance on study procedures, applying a CMS on their chest, performing a vagal maneuver (VM), and study drug self-administration.
For administration, the patients placed the applicator of the system into their nose. The subject's held the nasal delivery system between the second and third fingers, with the thumb placed on the actuator. […] The subjects then apply pressure to the actuator, which forces the liquid solution containing the dissolved acetate salt of compound I through the device, causing the solution to be released from the tip of the applicator as a spray. The solution was administered to the patients as two single pump spray dosages in order to deliver 70 mg of compound I to the nasal epithelium.
The presence of an episode of PSVT and termination were evaluated by an independent Adjudication Committee. The Adjudication Committee's evaluations were done using the complete CMS ECG recorded during the patient's PSVT episode.

subjects in sinus rhythm = test: Example 4: one vs two 70 mg doses, PR interval and safety; assay type: in vivo, human
Method: A population of 46 subjects in sinus rhythm received one 70 mg dose of compound I according to the protocol of Example 2, and after several months the dose regimen of 70 mg followed by a repeat same dose of 70 mg 10 minutes later as in the protocol of Example 3.
Two dose administration followed the same protocol as single dose administration for the initial dose, however 10 minutes after the first 70 mg dose of compound I, a second 70 mg dose of compound I was administered. For the second dose, the patients were allowed to blow their nose to remove any excess fluid build-up immediately prior to self-administration of the second 70 mg dose.

[3] = one and two 70 mg dose regimens

SMILES: COC(=O)c1cccc(CCN(C)CCCC(C#N)(c2ccc(OC)c(OC)c2)C(C)C)c1 (stereo not shown) [compound I, methyl 3-(2-((4-cyano-4-(3,4-dimethoxyphenyl)-5-methylhexyl)(methyl)amino)ethyl)benzoate]
- salt solution concentration attainable [1]: concentrations sufficient for nasal administration
- time at which pharmacodynamic effect began to decrease ([2]; 35, 70 and 105 mg doses): 15 min
- time to increase of PR interval and HR ([2]; 35, 70 and 105 mg doses): ≤ 10 min
- duration of pharmacodynamic effect ([2]; duration of PR prolongation exceeding 10% from baseline): 30 to 45 min
- exposure, dose proportionality ([2]; human, in vivo): increased in a dose proportional manner between 35 and 70 mg but not between the 70 and 105 mg doses
- overall success rate (induced PSVT; 35 mg, at 15 minutes): 65%
- treatment effect compared to placebo (induced PSVT; 35 mg, at 15 minutes): 30%
- mean reduction in systolic blood pressure (SBP) versus baseline (induced PSVT; 105 mg): 11.4%
- mean reduction in systolic blood pressure (SBP) versus baseline (induced PSVT; 140 mg): 15.6%
- termination of induced PSVT within 15 minutes of dosing (induced PSVT; 70, 105 and 140 mg vs placebo): statistically significantly superior compared with placebo
- time to conversion of PSVT to sinus rhythm (SR) (induced PSVT; 70, 105 and 140 mg vs placebo): shorter
- tolerability (induced PSVT; NS 70 mg): well tolerated
- mean SBP (induced PSVT; doses of 35 and 70 mg): did not drop
- incidences of severe adverse events or adverse events of interest vs placebo (PSVT; 70 mg): no significant differences
- median time to conversion (PSVT; 70 mg): 25 min
- most common adverse events (PSVT; 70 mg): local to the nose, including nasal irritation and congestion
- patients converted to SR within 30 minutes after study drug administration (PSVT; 70 mg): 54%
- patient reported treatment satisfaction (TSQM-9) (PSVT; 70 mg vs placebo, secondary endpoint): nominal statistically significant improvements in favor of compound I over placebo
- hazard ratio HR (95% CI), time to conversion of PSVT to SR vs placebo (PSVT; 70 mg, 5-hour observation period): 1.086 (0.726, 1.623)
- safety and tolerability (PSVT; 70 mg, over 5 hours following treatment, more than 100 patients in PSVT): safe and well tolerated
- absolute difference in conversion rate vs placebo by 30 minutes (PSVT; 70 mg, post hoc analysis): ~19%
- AV block (subjects in sinus rhythm; [3]): No new AV block was observed
- lowest systolic blood pressure seen (subjects in sinus rhythm; [3]): ≥ 99 mmHg
- severe adverse reactions (subjects in sinus rhythm; [3]): No severe adverse reactions were seen
- increase in PR interval (subjects in sinus rhythm; repeat 70 mg, second dose 10 minutes after the initial dose): 21 ms
- maximum percentage increase in PR interval (subjects in sinus rhythm; repeat dose of 70 mg): 14%
- duration of PR increase (subjects in sinus rhythm; repeat dose of 70 mg vs single dose of 70 mg): more prolonged
- increase in PR interval (subjects in sinus rhythm; single 70 mg administration): 15 ms
- maximum percentage increase in PR interval (subjects in sinus rhythm; single 70 mg administration): 9%
- heart rate and systolic blood pressure (subjects in sinus rhythm; single 70 mg dose and two 70 mg doses separated by 10 minutes): remain in normal ranges
- safety and tolerability (subjects in sinus rhythm; two dose regimen of 70 mg compared to single dose regimen): safe and was well tolerated
